Laboratory results published in PubChem BioAssay (NCI).
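Cultured in 96-well plates, cells were exposed to test compound for 48 hours across five concentrations. GI50 marks 50% less growth. TGI denotes the concentration required for complete inhibition of growth.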

Columns and labels:
Assay in all cases: NCI tumour cell line growth inhibition, 48 h
[1] = system: A549 NSCLC
[2] = system: ACHN renal
[3] = system: BT-549 breast
[4] = system: CAKI-1 renal
[5] = system: CCRF-CEM leukemia
[6] = system: COLO 205 colon
[7] = system: DU-145 prostate
[8] = system: EKVX NSCLC
[9] = system: HCC-2998 colon
[10] = system: HCT-116 colon
[11] = system: HCT-15 colon
[12] = system: HOP-62 NSCLC
[13] = system: HOP-92 NSCLC
[14] = system: HS 578T breast
[15] = system: HT29 colon
[16] = system: K-562 leukemia
[17] = system: KM12 colon
[18] = system: LOX IMVI melanoma
[19] = system: M14 melanoma
[20] = system: MALME-3M melanoma
[21] = system: MCF7 breast
[22] = system: MDA-MB-435
[23] = system: MOLT-4 leukemia
[24] = system: NCI-H23 lung
[25] = system: NCI-H460 lung
[26] = system: NCI/ADR-RES ovarian
[27] = system: OVCAR-3 ovarian
[28] = system: OVCAR-4 ovarian
[29] = system: OVCAR-5 ovarian
[30] = system: OVCAR-8 ovarian
[31] = system: PC-3 prostate
[32] = system: RPMI-8226 leukemia
[33] = system: SF-268 CNS
[34] = system: SF-295 CNS
[35] = system: SF-539 CNS
[36] = system: SK-MEL-28 melanoma
[37] = system: SK-MEL-5 melanoma
[38] = system: SK-OV-3 ovarian
[39] = system: SN12C renal
[40] = system: SNB-19 CNS
[41] = system: SNB-75 CNS
[42] = system: SW-620 colon
[43] = system: T-47D breast
[44] = system: TK-10 renal
[45] = system: U251 CNS
[46] = system: UACC-257 melanoma
[47] = system: UACC-62 melanoma

## Nc1ccccc1C#C/C=C\C#Cc1cnccn1
[1]
  GI50: 30.2 µM
  TGI: > 100 µM
[2]
  GI50: 22.2 µM
  TGI: 79.7 µM
[3]
  GI50: 20.3 µM
  TGI: 70.2 µM
[4]
  GI50: 46.3 µM
  TGI: > 100 µM
[5]
  TGI: 14.8 µM
[6]
  GI50: 14.5 µM
  TGI: 28.5 µM
[7]
  GI50: 19.4 µM
  TGI: > 100 µM
[8]
  GI50: 16.3 µM
  TGI: > 100 µM
[9]
  GI50: 11 µM
  TGI: 23 µM
[10]
  GI50: 11.2 µM
  TGI: 23.2 µM
[11]
  GI50: 26.1 µM
  TGI: > 100 µM
[12]
  GI50: 13.6 µM
  TGI: 32.3 µM
[13]
  GI50: 1360 nM
  TGI: 18.3 µM
[14]
  GI50: 27 µM
  TGI: > 100 µM
[15]
  GI50: 23.4 µM
  TGI: 74.3 µM
[16]
  GI50: 6.66 µM
  TGI: > 100 µM
[17]
  GI50: 23.3 µM
  TGI: > 100 µM
[18]
  GI50: 2930 nM
  TGI: 17.5 µM
[19]
  GI50: 6.21 µM
  TGI: 20.4 µM
[20]
  GI50: 19.9 µM
  TGI: 58.6 µM
[21]
  GI50: 21.3 µM
  TGI: > 100 µM
[22]
  GI50: 48.4 µM
  TGI: > 100 µM
[23]
  GI50: 12.4 µM
  TGI: 68.5 µM
[24]
  GI50: 12.1 µM
  TGI: 27 µM
[25]
  GI50: 29.8 µM
  TGI: > 100 µM
[26]
  GI50: 13.7 µM
  TGI: 31.9 µM
[27]
  GI50: 86.5 µM
  TGI: > 100 µM
[28]
  GI50: 23.1 µM
  TGI: > 100 µM
[29]
  GI50: 18.8 µM
  TGI: 45.7 µM
[30]
  GI50: 41.8 µM
  TGI: > 100 µM
[31]
  GI50: 4.11 µM
  TGI: 23.8 µM
[32]
  GI50: 3.17 µM
  TGI: 19.2 µM
[33]
  GI50: 27.5 µM
  TGI: > 100 µM
[34]
  GI50: 74.6 µM
  TGI: > 100 µM
[35]
  GI50: 22.8 µM
  TGI: 87.6 µM
[36]
  GI50: 27.8 µM
  TGI: > 100 µM
[37]
  GI50: 6.34 µM
  TGI: 21.3 µM
[38]
  GI50: 31.1 µM
  TGI: 95.5 µM
[39]
  GI50: 4.33 µM
  TGI: 20.7 µM
[40]
  GI50: 36.7 µM
  TGI: > 100 µM
[41]
  GI50: 21.1 µM
  TGI: 90.7 µM
[42]
  GI50: 15.2 µM
  TGI: 46.1 µM
[43]
  GI50: 17.7 µM
  TGI: 40.3 µM
[44]
  GI50: 32.4 µM
  TGI: 60 µM
[45]
  GI50: 18.2 µM
  TGI: 41.8 µM
[46]
  GI50: 26 µM
  TGI: > 100 µM
[47]
  GI50: 3.95 µM
  TGI: 21 µM
